Assay results published in patent publication US5393923A, “3,5-di-t-butyl-4-hydroxyphenylmethylhydroxylamines and their derivatives, pharmaceutical compositions, and methods of use therefor” (Warner-Lambert Company, priority 1993, dated 1995).
Counter-ions that a name gives are not always drawn. Like-named read-outs stand apart in the source and are kept apart here.

Assays:
[1] = target: T1, 5-lipoxygenase (Rattus norvegicus, UniProt P12527); assay: ARBL whole cell 5-lipoxygenase assay (LTB4 formation, RBL-1 cells); format: cell-based
T1 construct: host or cells: RBL-1
T1 sequence (P12527 1-673): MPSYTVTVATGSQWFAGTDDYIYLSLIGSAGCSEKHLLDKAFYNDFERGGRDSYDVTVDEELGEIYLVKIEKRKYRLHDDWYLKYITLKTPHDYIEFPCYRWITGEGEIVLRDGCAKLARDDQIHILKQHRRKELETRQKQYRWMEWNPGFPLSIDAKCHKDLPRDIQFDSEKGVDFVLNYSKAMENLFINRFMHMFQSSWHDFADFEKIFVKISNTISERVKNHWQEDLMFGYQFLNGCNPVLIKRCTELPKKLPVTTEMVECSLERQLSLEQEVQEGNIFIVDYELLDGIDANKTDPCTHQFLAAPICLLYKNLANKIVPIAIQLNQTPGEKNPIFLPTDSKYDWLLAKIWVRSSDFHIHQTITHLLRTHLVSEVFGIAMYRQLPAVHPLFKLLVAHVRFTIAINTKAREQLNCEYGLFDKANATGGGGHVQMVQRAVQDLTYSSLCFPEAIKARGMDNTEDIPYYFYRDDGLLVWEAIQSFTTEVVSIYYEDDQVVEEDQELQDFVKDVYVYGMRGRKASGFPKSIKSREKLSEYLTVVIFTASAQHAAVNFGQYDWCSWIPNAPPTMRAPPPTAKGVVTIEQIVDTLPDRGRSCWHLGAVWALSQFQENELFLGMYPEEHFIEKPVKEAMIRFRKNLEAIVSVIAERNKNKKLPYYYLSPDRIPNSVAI
Description: (§1) ARBL/ARBC WHOLE CELL 5-LIPOXYGENASE AND CYCLOOXYGENASE ASSAYS The rat basophilic leukemia cell line (RBL-1) was obtained from the American Type Culture Collection (Rockville, Md.). Radioimmunoassay (RIA) kits of LTB4 and PGF2α were obtained from Amersham (Arlington Heights, Ill.) and Seragen (Boston, Mass.), respectively. RBL-1 cells are grown in suspension culture in Eagle's minimum essential medium supplemented with 12% fetal bovine serum at 37° C. in an incubator supplied with air-5% carbon dioxide. Cells are harvested by centrifugation. They are washed with cold phosphate-buffered saline, pH 7.4 (PBS; NaCl, 7.1 g; Na2 HPO4, 1.15 g; KH2 PO4, 0.2 g; and KCl, 0.2 g/L). Cells are finally suspended in PBS containing 1.0 mM calcium at a density of 2×10^6 cells/mL. Cells are incubated […] test agent (in DMSO) (1% DMSO is without effect on arachidonic acid metabolism) for 10 minutes at room temperature. Calcium ionophore A23187 (5 μM) is added and cells are incubated for 7 minutes at 37° C. The reaction is stopped by chilling the tubes on ice for 10 minutes. Cells are separated by centrifugation and the supernatant is stored at -20° C. Aliquots (100 μL) are analyzed for LTB4 and PGF2α using radioimmunoassay kits as provided by the supplier. Table 1 contains biochemical data for compounds of Formula I obtained from this whole cell assay as amount of inhibition at given μM or IC50 s which are calculated as the concentration of a test compound in micromoles (μM) causing 50% inhibition of LTB4 or PGF2αformation.

[2] = target: T2, cyclooxygenase (Rattus norvegicus, UniProt Q63921); assay: ARBC whole cell cyclooxygenase assay (PGF2α formation, RBL-1 cells); format: cell-based
T2 construct: host or cells: RBL-1
T2 sequence (Q63921 27-602): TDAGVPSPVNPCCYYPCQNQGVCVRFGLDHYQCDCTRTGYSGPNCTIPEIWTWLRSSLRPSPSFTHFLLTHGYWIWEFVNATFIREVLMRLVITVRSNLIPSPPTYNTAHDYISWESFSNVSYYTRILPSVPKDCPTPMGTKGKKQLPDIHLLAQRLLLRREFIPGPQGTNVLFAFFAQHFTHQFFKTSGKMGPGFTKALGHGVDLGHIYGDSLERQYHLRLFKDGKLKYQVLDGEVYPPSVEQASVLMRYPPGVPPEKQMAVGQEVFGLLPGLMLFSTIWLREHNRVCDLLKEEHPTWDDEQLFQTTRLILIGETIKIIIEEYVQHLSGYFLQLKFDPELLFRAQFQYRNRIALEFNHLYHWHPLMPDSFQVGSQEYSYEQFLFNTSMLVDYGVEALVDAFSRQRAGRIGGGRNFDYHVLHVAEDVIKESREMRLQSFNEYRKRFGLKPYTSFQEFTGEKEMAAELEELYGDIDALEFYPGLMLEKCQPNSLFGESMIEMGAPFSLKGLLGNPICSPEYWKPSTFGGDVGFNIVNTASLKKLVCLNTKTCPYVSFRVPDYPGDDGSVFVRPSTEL
Description: as §1

[3] = system: carrageenan-induced rat foot paw edema; assay: Carrageenan-induced rat foot paw edema-2 (CFE-2) assay; format: in vivo; conditions: dosed 1 hour before carrageenan, edema measured 5 hours after, read-out: CFE ID40
Description: CARRAGEENAN-INDUCED RAT FOOT PAW EDEMA-2 (CFE-2) ASSAY: PROTOCOL
Carrageenan solution (1% w/v) is prepared by dissolving 100 mg carrageenan (Marine Colloidal Div., Springfield, N.J.) in 10 mL of sterile saline (0.9%) solution (Travenol). The solution is vortexed for 30 to 45 minutes. Animals are dosed with compound 1 hour before carrageenan challenge. Foot paw edema is induced by injecting 0.10 mL of the 1% carrageenan subcutaneously into the plantar portion of the right hind paw of each rat under light anesthesia. Initial foot paw volume is measured immediately following carrageenan challenge using mercury plethysmography (Buxco Electronics). Edema is measured 5 hours after carrageenan. The difference between the 5-hour and the initial paw volume is expressed as delta edema. The delta edema for each test group of animals is used to calculate the percent inhibition of edema achieved by the compound at the test dose compared with the vehicle control group. The ID40 (the dose at which swelling is inhibited by 40%) is calculated by probit analysis for the dose at which 40% inhibition occurs.

[4] = A23187, read-out: ARBL inhibition of LTB4 at given concentration
[5] = A23187, class symbol, read-out: ARBC inhibition at given concentration (N)
[6] = A23187, class symbol, read-out: ARBL inhibition at given concentration (N)

Compound | inhibition at 16 µM [1, 4] [%] | inhibition at 16 µM [2, 5] [%] | other results
CC(C)C(=O)N(O)C(C)c1cc(C(C)(C)C)c(O)c(C(C)(C)C)c1 (stereo not shown) [Example 4, N-[1-[3,5-Bis(1,1-dimethylethyl)-4-hydroxyphenyl]-ethyl]-N-hydroxy-2-methylpropanamide] | > 91 | < 40 | 
CC(=O)N(O)C(C)c1cc(C(C)(C)C)c(O)c(C(C)(C)C)c1 (stereo not shown) [Example 5, N-[1-[3,5-Bis(1,1-dimethylethyl)-4-hydroxyphenyl]-ethyl]-N-hydroxyacetamide] | > 90 | < 40 | 
CCOC(=O)N(O)C(C)c1cc(C(C)(C)C)c(O)c(C(C)(C)C)c1 (stereo not shown) [Example 6, [1-[3,5-Bis(1,1-dimethylethyl)-4-hydroxyphenyl]-ethyl]hydroxycarbamic acid, ethyl ester] | > 96 | < 40 | 
CNC(=S)N(O)C(C)c1cc(C(C)(C)C)c(O)c(C(C)(C)C)c1 (stereo not shown) [Example 7, N-[1-[3,5-Bis(1,1-dimethylethyl)-4-hydroxyphenyl]-ethyl]-N-hydroxy-N'-methylthiourea] |  | < 40 | inhibition at 16 µM [1, 6]: < 40%
CNC(=O)N(O)C(C)c1cc(C(C)(C)C)c(O)c(C(C)(C)C)c1 (stereo not shown) [Example 8, N-[1-[3,5-Bis(1,1-dimethylethyl)-4-hydroxyphenyl]-ethyl]-N-hydroxy-N'-methylure] |  |  | inhibition at 16 µM [1, 6]: < 40%; inhibition at 16 µM ([2]; A23187, read-out: ARBC inhibition of PGF2α at given concentration): 45%
CCNC(=O)N(O)C(C)c1cc(C(C)(C)C)c(O)c(C(C)(C)C)c1 (stereo not shown) [Example 9, N-[1-[3,5-Bis(1,1-dimethylethyl)-4-hydroxyphenyl]-ethyl]-N'-ethyl-N-hydroxyurea] | > 91 | < 40 | 
CC(c1cc(C(C)(C)C)c(O)c(C(C)(C)C)c1)N(O)C(N)=O (stereo not shown) [Example 10, N-[1-[3,5-Bis(1,1-dimethylethyl)-4-hydroxylphenyl]-ethyl]-N-hydroxyurea] | 79 | < 40 | 
CCOC(=O)NC(=S)N(O)C(C)c1cc(C(C)(C)C)c(O)c(C(C)(C)C)c1 (stereo not shown) [Example 11, [[[1-[3,5-Bis(1,1-dimethylethyl)-4-hydroxyphenyl]-ethyl]hydroxyamino]-thioxomethyl]carbamic acid, ethyl ester, acetate (10:3)] | 91 | < 40 | 
CC(=O)ON(Cc1cc(C(C)(C)C)c(O)c(C(C)(C)C)c1)C(C)=O [Example 12, N-(Acetyloxy)-N-[[3,5-bis(1,1-dimethylethyl)-4-hydroxyphenyl]methyl]acetamide, 0.3 hydrate] | 95 | < 40 | 
CC(C)C(=O)ON(Cc1cc(C(C)(C)C)c(O)c(C(C)(C)C)c1)C(=O)C(C)C [Example 13, N-[[3,5-Bis(1,1-dimethylethyl)-4-hydroxyphenyl]-methyl]-2-methyl-N-[2-methyl-1-oxopropoxy]propanamide] | 49 | < 40 | 
CC(C)C(=O)N(O)Cc1cc(C(C)(C)C)c(O)c(C(C)(C)C)c1 [Example 14, N-[[3,5-Bis(1,1-dimethylethyl)-4-hydroxyphenyl]-methyl]-N-hydroxy-2-methylpropanamide] | 95 | < 40 | 
CC(=O)N(O)Cc1cc(C(C)(C)C)c(O)c(C(C)(C)C)c1 [Example 15] | 90 | < 40 | 
CONC(c1ccccc1)c1cc(C(C)(C)C)c(O)c(C(C)(C)C)c1 (stereo not shown) [Example 18, 2,6-Bis(1,1-dimethylethyl)-4-[(methoxyamino)phenylmethyl]phenol, monohydrochloride] |  |  | inhibition at 10 µM [1, 4]: 93%; inhibition at 10 µM [2, 5]: < 40%
CN(O)C(c1ccccc1)c1cc(C(C)(C)C)c(O)c(C(C)(C)C)c1 (stereo not shown) [Example 19, 2,6-Bis(1,1-dimethylethyl)-4-[(hydroxymethylamino)phenylmethyl]phenol, monohydrochloride] |  |  | IC50 ([1]; 50% inhibition of LTB4 formation): 1200 nM; ED40 [3]: > 30 mg/kg; IC50 ([2]; 50% inhibition of PGF2α formation): 4300 nM
CC(C)C(=O)N(O)C(c1ccccc1)c1cc(C(C)(C)C)c(O)c(C(C)(C)C)c1 (stereo not shown) [Example 21, N-[[3,5-Bis(1,1-dimethylethyl)-4-hydroxyphenyl]-phenylmethyl]-N-hydroxy-2-methylpropanamide] |  |  | ED40 [3]: 5.3 mg/kg
CCOC(=O)N(O)C(c1ccccc1)c1cc(C(C)(C)C)c(O)c(C(C)(C)C)c1 (stereo not shown) [Example 23, N-[[3,5-Bis(1,1-dimethylethyl)-4-hydroxyphenyl]-phenylmethyl]hydroxycarbamic acid, ethyl ester] | 97 | < 40 | 
CCNC(=O)N(O)C(c1ccccc1)c1cc(C(C)(C)C)c(O)c(C(C)(C)C)c1 (stereo not shown) [Example 24, N-[[3,5-Bis(1,1-dimethylethyl)-4-hydroxyphenyl]-phenylmethyl]-N'-ethyl-N-hydroxyurea] | 99 | < 40 | 
CNC(=O)N(O)C(c1ccccc1)c1cc(C(C)(C)C)c(O)c(C(C)(C)C)c1 (stereo not shown) [Example 25, N-[[3,5-Bis(1,1-dimethylethyl)-4-hydroxyphenyl]-phenylmethyl]-N-hydroxy-N'-methylurea] | 93 | < 40 | 
CNC(=S)N(O)C(c1ccccc1)c1cc(C(C)(C)C)c(O)c(C(C)(C)C)c1 (stereo not shown) [Example 26, N-[[3,5-Bis(1,1-dimethylethyl)-4-hydroxyphenyl]-phenylmethyl]-N-hydroxy-N'-methylthiourea] | 98 | < 40 | 
CC(C)(C)c1cc(C(c2ccccc2)N(O)C(N)=O)cc(C(C)(C)C)c1O (stereo not shown) [Example 27, N-[[3,5-Bis(1,1-dimethylethyl)-4-hydroxyphenyl]-phenylmethyl]-N-hydroxyurea] |  |  | inhibition at 10 µM [1, 4]: 97%; inhibition at 10 µM [2, 5]: < 40%
